Measurements published in US11331328B2, “Compositions and methods for inhibiting antiapoptotic Bcl-2 proteins as anti-aging agents” (priority 2014, dated 2022).

What was measured:
caspase 3, caspase 8 = test: Western blot analysis of caspase activation; assay type: cell-based, human; conditions: IR-SC WI-38; 1.25 μM ABT263, 24 h
Experimental: Cells (1×10^6) were lysed in 100 μl lysis buffer (20 mM Tris-HCl, pH 7.4, 150 mM NaCl, 1 mM EDTA. 1 mM EGTA, 10% glycerol, 1.0% NP-40, 0.1 M NaF, 1 mM DTT, 1 mM PMSF, 1 mM NaVO4, 2 μg/ml leupeptin and aprotinin) for 30 min on ice, and cell extracts were sonicated 3 times (5 secs each time) on ice with a 25-sec interval in between using a Sonic Dismembrator Ultrasonic Convertor (Model F60, from Fisher, Pittsburgh, Pa., USA). The protein concentrations were quantified using the Bio-Rad Dc protein assay kit (Bio-Rad Laboratories, Hercules, Calif., USA). Equal amounts of protein (25-50 μg/lane) from each extract was resolved on 12% SDS-PAGE gels. Proteins were blotted to NOVEX NC membranes (Life Technologies, Carlsbad, Calif., USA). The membranes were blocked with TBS-T (5% nonfat milk in 25 mM Tris-HCl, pH 7.4. 3 mM KCl, 140 mM NaCl, and 0.05% Tween) and subsequently probed with primary antibodies at a predetermined optimal concentration as indicated in Supplementary Table 3 overnight at 4° C. or for 1 h at room temperature. […] After three washes with TBS-T, the blots were detected using the ECL Western Blotting Detection Reagents (Cat #WBKLS0100) (EMD MILLIPORE. Newmarket, Suffolk, UK) and recorded by exposure of the blots to X-ray film (Pierce Biotech, Rockford, Ill., USA).

[1] = test system: human renal epithelial cells (REC); test: Cell viability, IR-SC vs NC, renal epithelial cells; assay type: cell-based; conditions: increasing concentrations, 72 h
Experimental: (§1) Human WI-38 fibroblasts (WI38 cells, #CCL-75™), human IMR-90 fibroblasts (IMR90 cells, #CCL-186™), human renal epithelial cells (REC cells, #PCS-400-012™) were obtained from ACTT (Manassas, Va., USA). Mouse embryonic fibroblasts (MEF) were isolated from mouse embryos as described^1. All cells were cultured in a complete medium (CM) (Dulbecco's Modified Eagle Medium supplemented with 10% fetal bovine serum [FBS], 100 U/ml penicillin, and 100 μg/ml streptomycin [all from Atlanta Biologicals, Norcross, Ga., and USA]) in a humidified incubator at 37° C. and 5% CO2. Low passages of WI-38 cells (<25), IMR-90 (<25), REC cells (<25) and MEF (<3) were used as non-senescent controls or for induction of senescence to avoid replicative senescence. To induce replicative senescence, WI-38 cells were subcultivated until cell division ceased after about 38 passages or 60 population doublings (FIG. 5)^2. […]
(§2) Flow cytometry: Non-senescent and senescent cells were seeded into wells of 24- or 48-well at about 70% of confluence. […] Viable cells (PI^− cells) were numerated by flow cytometry at a constant flow rate and calculated as a percentage of control cells treated with vehicle using the formula: percentage of control=(Ndrug/NC)×100, where Ndrug and NC represent the absolute number of PI^− viable cells of drug-treated and vehicle-treated cells, respectively.

[2] = test system: senescent WI38 cells induced by expression of oncogenic Ras (Ras-SC); test: Cell viability, LD50 in oncogenic Ras-induced senescent WI-38 cells; assay type: cell-based, human; conditions: Table 2
Experimental: as §1
as §2, with “respectively. […]” for “respectively.”

[3] = test system: IL-1α, TNFα, CCL-5, CXCL-10 mRNA; test: SASP mRNA levels in lungs of TBI p16-3MR mice (qRT-PCR); assay type: in vivo, mouse; conditions: 6 Gy TBI; 2 treatment cycles
Experimental: To measure p21 and GAPDH mRNA levels in WI-38 cells and IL-1α, TNFα, CCL-5, and CXCL-10 mRNA levels in mouse tissues, SYBR assay kit was used (Applied biosystems in life technologies). Briefly, 1 μl cDNA was mixed with 7.5 μl SYBR Green PCR Master Mix and 0.2 μl of primers (Table 5). Samples were then added with 6.30 μl of H2O to give a total 15 μl of mixture. qPCR conditions were as follows: 95° C. for 10 min, 40×(95° C. for 15 s and 60° C. for 1 min), 95° C. for […], 95° C. for 15 min. All reactions were run in triplicate on an ABI StepOnePlus Real-Time PCR System.

human IMR-90 fibroblasts = test: Cell viability, IR-SC vs NC, IMR-90 fibroblasts; assay type: cell-based; conditions: increasing concentrations, 72 h
Experimental: as §1, §2

SMILES: CC1(C)CCC(c2ccc(Cl)cc2)=C(CN2CCN(c3ccc(C(=O)NS(=O)(=O)c4ccc(N[C@H](CCN5CCOCC5)CSc5ccccc5)c(S(=O)(=O)C(F)(F)F)c4)cc3)CC2)C1 [ABT263, navitoclax]
- caspase activation (caspase 3, caspase 8): SCs activated caspase 3, but not caspase 8
- viable cells, IR-SC vs NC [1]: kills IR-induced senescent cells (IR-SC) but not non-senescent cells (NC)
- LD50 [2]: 0.62 µM
- SASP in lungs [3]: suppressed the SASP induced by TBI
- viable cells, IR-SC vs NC (human IMR-90 fibroblasts): kills IR-induced senescent cells (IR-SC) but not non-senescent cells (NC)
